Laboratory results published in patent US20250170104A1, “INHIBITORS OF PSEUDOMONAS AERUGINOSA VIRULENCE FACTOR Lasß” (priority 2022, published 2025).

Experiments:
[1] = Kinetic turbidimetric solubility assay; type: physicochemical; conditions: PBS, aqueous buffer, kinetic from dmso stock
Procedure: The desired compounds were sequentially diluted in DMSO in a 96-well plate. 1.5 μL of each well were transferred into another 96-well plate and mixed with 148.5 μL of PBS. Plates were shaken for 5 min at 600 rpm at room temperature, and the absorbance at 620 nm was measured. Absorbance values were normalized by blank subtraction and plotted using GraphPad Prism 8.4.2 (GraphPad Software, San Diego, CA, USA). Solubility (S) was determined based on the First X value of AUC function using a threshold of 0.005.

in vitro = in vitro ADME; conditions: mouse, s9
Procedure: For the evaluation of combined phase I and phase II metabolic stability, the compound (1 μM) was incubated with 1 mg/mL pooled liver S9 fraction (Xenotech), 2 mM NADPH, 1 mM UDPGA, 10 mM MgCl2, 5 mM GSH and 0.1 mM PAPS at 37° C. for 0, 5, 15, 30 and 60 min. The metabolic stability of Testosterone (1 μM), verapamil (1 μM) and ketoconazol (1 μM) were determined in parallel to confirm the enzymatic activity of the S9 fraction. The incubation was stopped by precipitation of S9 enzymes with 2 volumes of cold acetonitrile containing internal standard (150 nM Diphenhydramine). Samples were stored on ice for 10 min and precipitated protein was removed by centrifugation (15 min, 4° C., 4,000 rpm). The remaining test compound at different time points was analyzed by LC-MS/MS (TSQ Quantum Access MAX, Thermo Fisher, Dreieich, Germany) and used to determine half-life (t½).

MMP1 = MMP1 (Homo sapiens (Human), UniProt P03956); assay: Selectivity assay: inhibition of MMPs; type: biochemical
Procedure: (§1) MMPs-1, -2, -3, -7, -8 and -14 along with the SensoLyte 520 Generic MMP Activity Kit*Fluorimetric* were purchased from AnaSpec (Fremont, CA, USA). The assay was performed as described previously (Schönauer E, Kany A M, Haupenthal J, Hüsecken K, Hoppe I J, Voos K, et al. Discovery of a Potent Inhibitor Class with High Selectivity toward Clostridial Collagenases. J Am Chem Soc. 2017 Sep. 13; 139(36):12696-703) using batimastat as a positive control according to the guidelines of the manufacturer.

MMP2 = MMP2 (Homo sapiens (Human), UniProt P08253); assay: Selectivity assay: inhibition of MMPs; type: biochemical
Procedure: as §1

MMP3 = MMP3 (Homo sapiens (Human), UniProt P08254); assay: Selectivity assay: inhibition of MMPs; type: biochemical
Procedure: as §1

ADAM-17 (TACE) = ADAM-17 (TACE) (Homo sapiens (Human), UniProt P78536); assay: ADAM-17 (TACE) inhibitor screening assay; type: biochemical; conditions: read-out: Selectivity IC50 TACE
Procedure: The ADAM-17 (TACE) Inhibitor Screening Assay Kit was purchased from Sigma-Aldrich. The assay was performed according to the guidelines of the manufacturer using ilomastat as a positive control. Fluorescence signals were measured in a CLARIOstar plate reader (BMG Labtech).

Cytotoxicity assay = type: cell-based; conditions: human
Procedure: HepG2, HEK293 or A549 cells (2×10^5 cells per well) were seeded in 24-well, flat-bottomed plates. Culturing of cells, incubations, and OD measurements were performed as described previously (Int. J. Cancer 2007, 121, 206-210). Twenty-four hours after seeding the cells, the incubation was started by the addition of test compound in a final DMSO concentration of 1%. The living cell mass was determined after 48 h. At least two independent measurements were performed for each compound.

P. aeruginosa PA-14 = assay: MIC determination assay / antibacterial activity; type: cell-based; conditions: Pseudomonas aeruginosa, PA14
Procedure: Assays regarding the determination of the minimum inhibitory concentration (MIC) were performed as described previously (Elgaher W A M, Fruth M, Groh M, Haupenthal J, Hartmann R W. Expanding the scaffold for bacterial RNA polymerase inhibitors: design, synthesis and structure-activity relationships of ureido-heterocyclic-carboxylic acids. RSC Adv. 2013 Dec. 3; 4(5):2177-94). The experiments were based on the P. aeruginosa strain PA14. For the case that no MIC value could be determined due to activity reasons, percentage (%) inhibition at 100 μM (or lower, depending on the solubility of the compounds) was calculated. The OD600 was measured 0 and 16 h after inhibitor addition in a CLARIOstar Platereader (BMG Labtech, Ortenberg, Germany).

[2] = tested on: A549 cells challenged with P. aeruginosa PAO1 culture supernatant; assay: A549 cell-based assay, LasB-related cytotoxicity (MTT); parameters: species or system human; conditions: 10% (v/v) PAO1 csn
Procedure: The human lung adenocarcinoma cell line (A549) was cultured in Dulbecco's Modified Eagle Medium (DMEM), containing 10% Fetal Bovine Serum (FBS) and 1% penicillin-streptomycin mixture. Cells were maintained according to standard cell culture procedures.
To conduct the assay, 2.5-3.5*10^3 cells/well were seeded into a flat bottom 96-well plate (Corning™ Costar™) and incubated at 37° C.+5% CO2 for 24 hours. On the following day, several concentrations of the compound 169 were tested against 10% (v/v) Pseudomonas aeruginosa PAO1 (DSM 22644, ATCC 15692) culture supernatant diluted in DMEM starting from 1.25 μM. The compound was initially dissolved in 99.9% Dimethyl sulfoxide (DMSO) and a final assay concentration of 0.5% (v/v) was applied to minimize the proteolytic effect of DMSO on the bacterial culture supernatant. In addition, cells were challenged with 10% (v/v) of AlasB PAO1 to confirm the toxic effect derived from LasB, and DMEM was included as a control without any treatment. Plates were incubated at 37° C.+5% CO2 for 24 hours prior to the MTT assay.
The graph represents three independent experiments ±SD. One-way ANOVA statistical analysis was performed following Dunnett's multiple comparisons test, comparing the mean value of each concentration to the mean value of PAO1 without any treatment with compounds (**** p≤0.0001, ** p≤0.01, * p≤0.05).

MMP2, sequence (P08253 110-660): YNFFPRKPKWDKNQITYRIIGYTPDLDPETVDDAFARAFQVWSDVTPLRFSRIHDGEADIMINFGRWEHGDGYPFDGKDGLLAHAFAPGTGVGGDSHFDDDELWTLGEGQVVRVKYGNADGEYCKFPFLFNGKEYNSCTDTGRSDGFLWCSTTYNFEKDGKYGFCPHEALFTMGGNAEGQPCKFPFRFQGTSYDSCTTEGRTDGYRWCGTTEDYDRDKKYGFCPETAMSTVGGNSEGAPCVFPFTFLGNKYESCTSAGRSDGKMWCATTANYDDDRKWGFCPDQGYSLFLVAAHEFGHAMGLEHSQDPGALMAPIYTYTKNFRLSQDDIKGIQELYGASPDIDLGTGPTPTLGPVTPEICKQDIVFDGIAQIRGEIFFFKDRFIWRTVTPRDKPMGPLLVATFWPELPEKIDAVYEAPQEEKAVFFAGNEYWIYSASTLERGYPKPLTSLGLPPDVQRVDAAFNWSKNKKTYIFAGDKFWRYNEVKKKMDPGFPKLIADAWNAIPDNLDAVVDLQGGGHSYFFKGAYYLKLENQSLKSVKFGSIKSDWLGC
MMP1, sequence (P03956 100-469): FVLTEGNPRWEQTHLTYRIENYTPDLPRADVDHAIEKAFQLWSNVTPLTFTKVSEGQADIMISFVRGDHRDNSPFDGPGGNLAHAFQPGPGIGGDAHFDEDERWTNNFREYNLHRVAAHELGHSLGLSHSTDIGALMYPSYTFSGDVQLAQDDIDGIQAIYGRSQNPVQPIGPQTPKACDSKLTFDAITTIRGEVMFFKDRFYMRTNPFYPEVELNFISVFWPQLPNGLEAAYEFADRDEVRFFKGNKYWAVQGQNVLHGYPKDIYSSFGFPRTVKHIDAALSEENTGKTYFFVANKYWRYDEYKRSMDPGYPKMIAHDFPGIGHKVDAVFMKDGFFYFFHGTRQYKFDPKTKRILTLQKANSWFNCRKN
MMP3, sequence (P08254 100-477): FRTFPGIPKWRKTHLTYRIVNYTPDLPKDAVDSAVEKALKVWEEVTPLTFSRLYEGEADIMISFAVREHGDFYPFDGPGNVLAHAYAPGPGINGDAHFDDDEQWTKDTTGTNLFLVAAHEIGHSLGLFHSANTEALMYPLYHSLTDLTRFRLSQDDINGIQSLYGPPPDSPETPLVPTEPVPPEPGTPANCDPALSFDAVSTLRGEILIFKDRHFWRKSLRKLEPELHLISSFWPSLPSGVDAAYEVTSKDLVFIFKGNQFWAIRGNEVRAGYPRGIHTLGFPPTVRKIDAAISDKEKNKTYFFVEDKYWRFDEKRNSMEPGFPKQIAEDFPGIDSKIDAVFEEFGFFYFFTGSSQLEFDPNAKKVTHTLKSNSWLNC
ADAM-17 (TACE), sequence (P78536 whole entry, looked up): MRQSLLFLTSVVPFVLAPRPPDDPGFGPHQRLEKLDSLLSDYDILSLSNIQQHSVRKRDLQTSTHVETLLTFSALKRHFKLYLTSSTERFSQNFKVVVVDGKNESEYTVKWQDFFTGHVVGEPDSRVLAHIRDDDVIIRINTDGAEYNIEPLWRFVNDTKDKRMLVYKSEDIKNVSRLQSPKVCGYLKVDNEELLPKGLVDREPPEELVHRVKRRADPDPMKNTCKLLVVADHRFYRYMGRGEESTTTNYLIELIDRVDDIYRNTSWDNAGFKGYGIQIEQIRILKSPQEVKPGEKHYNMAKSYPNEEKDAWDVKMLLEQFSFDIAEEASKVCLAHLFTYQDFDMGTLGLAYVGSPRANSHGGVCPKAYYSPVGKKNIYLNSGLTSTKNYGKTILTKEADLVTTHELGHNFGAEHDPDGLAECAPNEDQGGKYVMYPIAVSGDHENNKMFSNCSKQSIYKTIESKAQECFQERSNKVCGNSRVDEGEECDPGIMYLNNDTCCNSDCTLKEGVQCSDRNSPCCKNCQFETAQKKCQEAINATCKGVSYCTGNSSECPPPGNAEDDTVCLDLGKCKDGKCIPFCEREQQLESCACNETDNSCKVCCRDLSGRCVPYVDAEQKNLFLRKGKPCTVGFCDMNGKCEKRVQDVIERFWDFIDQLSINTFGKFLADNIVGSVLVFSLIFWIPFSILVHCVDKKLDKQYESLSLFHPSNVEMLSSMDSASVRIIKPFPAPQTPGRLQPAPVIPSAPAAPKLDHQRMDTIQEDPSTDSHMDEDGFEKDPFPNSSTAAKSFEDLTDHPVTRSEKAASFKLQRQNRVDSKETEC

Question: What does the source list for CC(C)CC(C(=O)NO)C(=O)Nc1ccc(Cn2cc(CNS(=O)(=O)CC(C)C)nn2)cc1 (stereo not drawn) [Compound 169, 2-(Hydroxycarbamoyl)-N-[4-[[4-[(isobutylsulfonylamino)methyl]triazol-1-yl]methyl]phenyl]-4-methyl-pentanamide]?
Answer: solubility at 5 min [1]: > 200 µM; half-life at 1 μM (in vitro): > 2 h; IC50 (MMP1): > 100 µM; IC50 (MMP2): > 100 µM; IC50 (MMP3): > 100 µM; IC50 (ADAM-17 (TACE)): > 100 µM; IC50 at 48 h (Cytotoxicity assay; A549 cells): > 100 µM; IC50 at 48 h (Cytotoxicity assay; HEK293 cells): > 100 µM; IC50 at 48 h (Cytotoxicity assay; HepG2 cells): > 100 µM; IC50 (P. aeruginosa PA-14): > 100 µM; Reduction of LasB-related cytotoxicity in A549 cells ([2]; 24 h, MTT): excellent potency; Dose-response of LasB inhibition in A549 cells ([2]; from 1.25 μM): Dose-dependent inhibition of LasB in a low micromolar to nanomolar range
